These results are taken from PubChem BioAssay AID248 (DTP/NCI, 2004).

The subject of the assay is L1210 leukemia ip in BDF1 mice, survival T/C. Put plainly: NCI In Vivo Anticancer Drug Screen. Data for tumor model L1210 Leukemia (intraperitoneal) in B6D2F1 (BDF1) mice. The following applies: endpoint: mean survival time, higher = longer survival. In outline: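 Transplantable tumor model; survival measured in treated vs vehicle control mice. Value = treated/control.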

Setting [1] is: dose: 100.0 mg/kg/injection, schedule: Q04DX003 (ip), vehicle: saline with Tween-80.
Setting [2] is: dose: 200.0 mg/kg/injection, schedule: Q04DX003 (ip), vehicle: saline with Tween-80.
The mark [3] stands for this setting: dose: 400.0 mg/kg/injection, schedule: Q04DX003 (ip), vehicle: saline with Tween-80.
Where [4] appears, read: dose: 100.0 mg/kg/injection, schedule: Q01DX001 (ip), vehicle: Klucel (hydroxypropylcellulose) (HPC).
[5] abbreviates: dose: 200.0 mg/kg/injection, schedule: Q01DX001 (ip), vehicle: Klucel (hydroxypropylcellulose) (HPC).
The mark [6] stands for this setting: dose: 400.0 mg/kg/injection, schedule: Q01DX001 (ip), vehicle: Klucel (hydroxypropylcellulose) (HPC).
The mark [7] stands for this setting: dose: 25.0 mg/kg/injection, schedule: Q01DX009 (ip), vehicle: saline with Tween-80.
Setting [8] is: dose: 12.5 mg/kg/injection, schedule: Q01DX009 (ip), vehicle: Klucel (hydroxypropylcellulose) (HPC).
[9] abbreviates: dose: 25.0 mg/kg/injection, schedule: Q01DX009 (ip), vehicle: Klucel (hydroxypropylcellulose) (HPC).
The mark [10] stands for this setting: dose: 50.0 mg/kg/injection, schedule: Q01DX009 (ip), vehicle: Klucel (hydroxypropylcellulose) (HPC).
Where [11] appears, read: dose: 100.0 mg/kg/injection, schedule: Q04DX003 (ip), vehicle: Klucel (hydroxypropylcellulose) (HPC).
Where [12] appears, read: dose: 200.0 mg/kg/injection, schedule: Q04DX003 (ip), vehicle: Klucel (hydroxypropylcellulose) (HPC).
The mark [13] stands for this setting: dose: 400.0 mg/kg/injection, schedule: Q04DX003 (ip), vehicle: Klucel (hydroxypropylcellulose) (HPC).
Setting [14] is: dose: 100.0 mg/kg/injection, schedule: Q01DX009 (ip), vehicle: Klucel (hydroxypropylcellulose) (HPC).
Where [15] appears, read: dose: 100.0 mg/kg/injection, schedule: Q04DX002 (ip), vehicle: Klucel (hydroxypropylcellulose) (HPC).
[16] abbreviates: dose: 200.0 mg/kg/injection, schedule: Q04DX002 (ip), vehicle: Klucel (hydroxypropylcellulose) (HPC).
Setting [17] is: dose: 400.0 mg/kg/injection, schedule: Q04DX002 (ip), vehicle: Klucel (hydroxypropylcellulose) (HPC).

The structures appear in SMILES notation. Several values for one entry are separate records, joined by “and”; a condition that tells them apart may be missing. Equal values may be shown once. Toxic doses and inconclusive results are not listed.

For the compound `Cc1ccc(C)c(C(=O)c2ccccc2C(=O)O)c1`, the T/C reads like this: (dose: 10.0 mg/kg/injection, schedule: Q01DX009 (ip), vehicle: saline) 101 % of control; (dose: 100.0 mg/kg/injection, schedule: Q01DX009 (ip), vehicle: saline sonified) 98 % of control; under setting [1], 90 % of control; (dose: 200.0 mg/kg/injection, schedule: Q01DX009 (ip), vehicle: saline sonified) 94 % of control; (dose: 200.0 mg/kg/injection, schedule: Q01DX009 (ip), vehicle: saline) 103 % of control; under setting [2], 94 % of control. Moreover, the T/C is 105 % of control (dose: 400.0 mg/kg/injection, schedule: Q01DX009 (ip), vehicle: saline sonified); 98 % of control (dose: 400.0 mg/kg/injection, schedule: Q01DX009 (ip), vehicle: saline); 90 % of control under setting [3].
Consider `CCOc1ccc(C(c2ccc(OCC)cc2)C(Cl)(Cl)Cl)cc1`, for which the T/C by setting is: under setting [4], 106 % of control; under setting [5], 100 % of control; under setting [6], 100 % of control.
In the case of `OC(CC(O)(C(F)(F)F)C(F)(F)F)CC(O)(C(F)(F)F)C(F)(F)F`, the T/C reads like this: under setting [7], 101 % of control; under setting [1], 95 % of control.
Turning to `Cc1cnc2c(=O)[nH]c(=O)[nH]c2n1`, the T/C runs as follows: under setting [8], 102 % of control; under setting [9], 98 % of control; under setting [10], 96 % of control; under setting [11], 96 % of control; under setting [12], 92 % of control; under setting [13], 92 % of control.
On to `N/C(Cc1ccc(N)cc1)=N\O`, for which the T/C reads like this: under setting [7], 97 % of control; (dose: 50.0 mg/kg/injection, schedule: Q01DX009 (ip), vehicle: saline with Tween-80) 101 % of control; (dose: 100.0 mg/kg/injection, schedule: Q01DX009 (ip), vehicle: saline with Tween-80) 95 % of control.
With `CCOC(=O)COc1ccc([N+](=O)[O-])cc1`, the T/C reads like this: under setting [4], 112 % of control; under setting [14], 97 % of control and 98 % of control; under setting [15], 96 % of control and 101 % of control; under setting [11], 106 % of control; under setting [5], 98 % of control; (dose: 200.0 mg/kg/injection, schedule: Q01DX009 (ip), vehicle: Klucel (hydroxypropylcellulose) (HPC)) 95 % of control and 105 % of control. The T/C under setting [16] was 96 % of control and 103 % of control; the T/C under setting [12] is 100 % of control; the T/C under setting [6] was 106 % of control; the T/C (dose: 400.0 mg/kg/injection, schedule: Q01DX009 (ip), vehicle: Klucel (hydroxypropylcellulose) (HPC)) was 93 % of control and 101 % of control; the T/C under setting [17] is 92 % of control and 102 % of control; the T/C under setting [13] is 101 % of control.
On to `CCN=C(c1ccc(NC(=O)c2ccc(C(=O)Nc3ccc(C(=NCC)N(CC)C(=O)Nc4ccc(OC)cc4)cc3)cc2)cc1)N(CC)C(=O)Nc1ccc(OC)cc1`, for which the T/C by setting is: (dose: 2.25 mg/kg/injection, schedule: Q01DX015 (ip), vehicle: methylcellulose (MC)) 108 % of control; (dose: 3.12 mg/kg/injection, schedule: Q01DX015 (ip), vehicle: methylcellulose (MC)) 101 % of control; (dose: 4.5 mg/kg/injection, schedule: Q01DX015 (ip), vehicle: methylcellulose (MC)) 110 % of control; (dose: 6.25 mg/kg/injection, schedule: Q01DX015 (ip), vehicle: methylcellulose (MC)) 124 % of control; (dose: 12.5 mg/kg/injection, schedule: Q01DX015 (ip), vehicle: methylcellulose (MC)) 170 % of control.
Turning to `O=C(NO)Oc1cccc2ccccc12`, the T/C by setting is: (dose: 25.0 mg/kg/injection, schedule: Q04DX002 (ip), vehicle: saline with Tween-80) 105 % of control; (dose: 50.0 mg/kg/injection, schedule: Q04DX002 (ip), vehicle: saline with Tween-80) 119 % of control; (dose: 100.0 mg/kg/injection, schedule: Q04DX002 (ip), vehicle: saline with Tween-80) 89 % of control.
In the case of `CS(=O)(=O)OCCCCCCCCOS(C)(=O)=O`, the T/C was 100 % of control (dose: 3.0 mg/kg/injection, schedule: Q01DX009 (ip), vehicle: Klucel (hydroxypropylcellulose) (HPC)); 102 % of control (dose: 5.0 mg/kg/injection, schedule: Q01DX009 (ip), vehicle: Klucel (hydroxypropylcellulose) (HPC)); 118 % of control (dose: 11.0 mg/kg/injection, schedule: Q01DX009 (ip), vehicle: Klucel (hydroxypropylcellulose) (HPC)); 108 % of control under setting [8]; 114 % of control under setting [9]; 112 % of control (dose: 25.0 mg/kg/injection, schedule: Q04DX003 (ip), vehicle: Klucel (hydroxypropylcellulose) (HPC)). Moreover, the T/C is, setting by setting: (dose: 37.5 mg/kg/injection, schedule: Q01DX009 (ip), vehicle: Klucel (hydroxypropylcellulose) (HPC)) 163 % of control; under setting [10], 93 % of control; (dose: 50.0 mg/kg/injection, schedule: Q04DX003 (ip), vehicle: Klucel (hydroxypropylcellulose) (HPC)) 116 % of control; under setting [11], 116 % of control.
For `S=C(NCc1cccc(Cl)c1)Nc1ccccc1`, the T/C by setting is: under setting [9], 98 % of control; under setting [10], 106 % of control; under setting [14], 93 % of control.
As for `CCN(CC)CCOc1cccc(OC)c1`, the T/C reads like this: (dose: 25.0 mg/kg/injection, schedule: Q01DX009 (ip), vehicle: saline) 95 % of control; (dose: 50.0 mg/kg/injection, schedule: Q01DX009 (ip), vehicle: saline) 96 % of control; (dose: 75.0 mg/kg/injection, schedule: Q01DX009 (ip), vehicle: saline) 95 % of control and 108 % of control.
On to `CC(C1SCCCS1)C1SCCCS1`, for which the T/C (dose: 37.5 mg/kg/injection, schedule: Q04DX002 (ip), vehicle: saline with Tween-80) was 92 % of control; the T/C (dose: 75.0 mg/kg/injection, schedule: Q04DX002 (ip), vehicle: saline with Tween-80) was 92 % of control; the T/C (dose: 150.0 mg/kg/injection, schedule: Q04DX002 (ip), vehicle: saline with Tween-80) is 98 % of control; the T/C (dose: 300.0 mg/kg/injection, schedule: Q04DX002 (ip), vehicle: saline with Tween-80) was 95 % of control.
On to `COc1ccc(OC)c2ncccc12`, for which the T/C (dose: 100.0 mg/kg/injection, schedule: Q01DX001 (ip), vehicle: saline) is 104 % of control.
As to `CC1=CC(O)CCC1` (centres undefined), the T/C reads like this: under setting [1], 104 % of control; under setting [2], 109 % of control; under setting [3], 93 % of control.
Regarding `CCc1cccc(CC)c1N=Cc1ccccc1O`, the T/C is 98 % of control and 102 % of control (dose: 100.0 mg/kg/injection, schedule: Q01DX009 (ip), vehicle: carboxymethylcellulose (CMC)); 93 % of control and 101 % of control (dose: 100.0 mg/kg/injection, schedule: Q04DX002 (ip), vehicle: carboxymethylcellulose (CMC)); 98 % of control (dose: 100.0 mg/kg/injection, schedule: Q04DX003 (ip), vehicle: carboxymethylcellulose (CMC)); 93 % of control and 98 % of control (dose: 200.0 mg/kg/injection, schedule: Q01DX009 (ip), vehicle: carboxymethylcellulose (CMC)); 96 % of control and 102 % of control (dose: 200.0 mg/kg/injection, schedule: Q04DX002 (ip), vehicle: carboxymethylcellulose (CMC)); 102 % of control (dose: 200.0 mg/kg/injection, schedule: Q04DX003 (ip), vehicle: carboxymethylcellulose (CMC)). For the same compound, the T/C was 95 % of control (dose: 400.0 mg/kg/injection, schedule: Q01DX009 (ip), vehicle: carboxymethylcellulose (CMC)); 93 % of control and 96 % of control (dose: 400.0 mg/kg/injection, schedule: Q04DX002 (ip), vehicle: carboxymethylcellulose (CMC)); 104 % of control (dose: 400.0 mg/kg/injection, schedule: Q04DX003 (ip), vehicle: carboxymethylcellulose (CMC)).
Consider `COC(=O)C1C(O)C(C)C(O)C(C)/C=C\C=C(C)C(=O)Nc2c(C)c(OC(C)=O)c3c(c2O)C(=O)C(C)=C2OCOC(=C23)C(C)=CC(C)(O)C(O)C(C)C1O` (centres undefined), for which the T/C is 104 % of control under setting [15], 101 % of control under setting [16] and 90 % of control under setting [17].
